Measurements taken from patent US20170094972A1, “Compounds and Compositions Having Knock-Down Activity Against Insect Pests” (priority 2015, published 2017).

Tests used:
Type in all cases: in vivo
Anopheles stephensi [1] = experiment: 6 well plate test, knockdown after 1 hour and mortality after 24 and 48 hours; parameters: KD: unit not given here; settings: for 24 hr mort / 48 hr mort / KD: Table B4; for KD: after 1 hour
Protocol: The individual wells of six (6) well tissue culture plates were treated with […] of an ethanol solution containing a test compound at a defined concentration. Once the deposits were dry, ten non-blood fed adult female Anopheles stephensi (between two to five day old) were added to each well, and sustained with a 10% sucrose solution in a cotton wool plug. Assessment of the knockdown after 1 hour (Tables B1-B10), and mortality after 24 and 48 hours (Tables B1-B4) was carried out.
(§1) In case of multiple tests, the mean value is reported.

female mosquitoes = experiment: Tunnel study based on WHOPES tunnel tests with Hemotek membrane feeding device
Protocol: Based on the “WHOPES tunnel tests” (described at http://apps.who.int/iris/bitstream/10665/80270/1/9789241505277_eng.pdf), except that live guniea pig baits were replaced with a Hemotek membrane feeding device, filled with blood and kept constant at 37° C. to mimic a human host. All tests were done under standardised laboratory controlled conditions (27° C.+2° C. under subdued light). The tunnel apparatus was a 60×30×30 cm glass case open at each end and the floor was lined with wet blue roll in order to maintain humidity. A 30×30×30 cm cage, covered in untreated netting, was placed at the release end. The test nets were cut to 25×25 cm squares and fitted into cardboard frames that allow a 20×20 cm area to be exposed. Nine holes, 1 cm in diameter, were made in the netting in the pattern specified in the WHOPES test. The frames were then fitted into the tunnel one third of the way down its length. A Hemotek device, filled with blood and kept constant at 37° C. to mimic a human host, was placed in the smaller area of the glass tunnel behind the test netting, and the end of the tunnel closed with a netting screen. A human sat at the Hemotek end of the tunnels for the duration of the test. At the start of the test (13.30-14.00), 100 female mosquitoes (non-blood fed, aged 5-8 days) were introduced into the cage. Mosquitoes are free to fly in the tunnel but have to make contact with the piece of netting and locate the holes in it before passing through to reach the bait. After 7 hours (20.30-21.00) the mosquitoes were counted in each section of the tunnel. The number of mosquitoes knocked down and blood fed were recorded. Blood-feeding inhibition was assessed by comparing the proportion of blood-fed females (alive or dead) in treated and control tests. Four tunnels were run simultaneously each day, with one control containing untreated netting included with all runs. Three replicates were carried out per treatment.
as §1

adult female mosquitoes = experiment: Bottle assay based on CDC bottle assay; settings: Table B15; rates not given
Protocol: Based on the “CDC bottle assay” (described at http://www.cdc.gov/malaria/resources/pdf/fsp/ir_manual/ir_cdc_bioassay_en.pdf) 1 ml of ethanol containing a test compound at a defined concentration was added to a 250 ml glass bottle and the bottles were placed on a rolling table to coat the inner surfaces as the solvent evaporated. Once dry, twenty five non-blood fed adult female mosquitoes of the appropriate species and strains (each three day old) were aspirated from the stock culture and gently blown into the exposure bottles. The lid of the bottle was replaced and the bottle placed upright out of direct sun light under standard culture conditions, nominally 28° C. and 60-80% relative humidity.
A stopwatch was started, and the assessment of the knock-down were made after 15 mins and 60 minutes. A mosquito was said to be knocked down if it was unable to stand, following the CDC definition. The bottles were replaced in an upright position when not being assessed.
After one hour the mosquitoes were carefully removed from the bottle with an aspirator and placed in a recovery cup. The mosquitoes were supplied with a 10% sucrose solution on a cotton wool bung, and stored under culture conditions. Assessments of the mortality were made after 24 hours and 48 hours (B15).
Each treatment was replicated a minimum of four times, with the mean knockdown or mortality recorded. In each study, a set of bottles was infested with a known insecticide susceptible strain of mosquitoes from the same genera as the resistant strains.

Aedes aegypti = experiment: 12 well plate knockdown test; settings: 1 h, read-out: Aedes aegypti 1 hour % KD; for pest or weed control at 0.2 ppm: Rate 0.2 PPM; for pest or weed control at 2 ppm: Rate 2 PPM; for pest or weed control at 20 ppm: Rate 20 PPM; for pest or weed control at 200 ppm: Rate 200 PPM
Protocol: (§2) The individual wells of a twelve (12) well tissue culture plates were treated with 100 μl of an ethanol solution containing a test compound at a defined concentration. Once the deposits were dry, five non-blood fed adult female Aedes aegypti or Anopheles stephensi (between two to five day old) were added to each well, and sustained with a 10% sucrose solution in a cotton wool plug. Assessment of the knockdown after 1 hour was carried out. Where multiple replicates of a treatment have been undertaken, the mean of those replicates is reported.

Anopheles stephensi [2] = experiment: 12 well plate knockdown test; settings: 1 h, read-out: Anopheles stephensi 1 hour % KD; for pest or weed control at 0.2 ppm: Rate 0.2 PPM; for pest or weed control at 2 ppm: Rate 2 PPM; for pest or weed control at 20 ppm: Rate 20 PPM; for pest or weed control at 200 ppm: Rate 200 PPM
Protocol: as §2

Row | Structure (SMILES) | pest or weed control at 0.2 ppm (Aedes aegypti) [%] | pest or weed control at 2 ppm (Aedes aegypti) [%] | pest or weed control at 20 ppm (Aedes aegypti) [%] | pest or weed control at 200 ppm (Aedes aegypti) [%] | pest or weed control at 0.2 ppm (Anopheles stephensi [2]) [%] | pest or weed control at 2 ppm (Anopheles stephensi [2]) [%] | pest or weed control at 20 ppm (Anopheles stephensi [2]) [%] | pest or weed control at 200 ppm (Anopheles stephensi [2]) [%] | also measured
1 | CC1(C)[C@H](C(=O)O[C@H](C#N)c2cccc(Oc3ccccc3)c2)[C@@H]1C=C(Br)Br [Deltamethrin, reference compound] |  |  |  |  |  |  |  |  | knockdown after 1 hour, Alone (Anopheles stephensi [1]; Table B6, 0.03125 ppm): 20; knockdown after 1 hour, Alone (Anopheles stephensi [1]; Table B6, 0.0625 ppm): 40; knockdown after 1 hour, Alone (Anopheles stephensi [1]; Table B6, 0.125 ppm): 40; knockdown after 1 hour, Alone (Anopheles stephensi [1]; Table B6, 0.25 ppm): 100; knockdown after 1 hour, Alone (Anopheles stephensi [1]; Table B6, 0.5 ppm): 100; knockdown after 1 hour, Alone (Anopheles stephensi [1]; Table B6, 1 ppm): 100; mortality at 5 mg/m2 (female mosquitoes; 24 h, Table B13, 5 mg/m2): 13%; % 1 hour KD (female mosquitoes; Table B12, 5 mg/m2): 0%; % Blood fed (female mosquitoes; Table B12, 5 mg/m2): 0%; % Through net (female mosquitoes; Table B12, 5 mg/m2): 0.93%; % Blood fed (female mosquitoes; Table B13, 5 mg/m2): 52.77%; % Through net (female mosquitoes; Table B13, 5 mg/m2): 67.6%
2 | N#CCNC(=O)c1cnccc1C(F)(F)F [Flonicamid] |  |  |  |  |  |  |  |  | 24 hour % mort (adult female mosquitoes): 0%; 48 hour % mort (adult female mosquitoes): 0%; % 1 hour KD (adult female mosquitoes): 0%
3 | CCCN1CN=C(c2cnccc2C(F)(F)F)OC1=O [I.16] | 0 | 60 | 60 | 100 | 0 | 0 | 0 | 0 | 
4 | C=CCONC(=O)c1cnccc1C(F)(F)F [I.17] | 0 | 0 | 0 | 0 | 0 | 0 | 20 | 100 | 
5 | CO/N=C(\C)CNC(=O)c1cnccc1C(F)(F)F [I.18] | 40 | 100 | 100 | 100 | 0 | 0 | 0 | 40 | 
6 | N/C(=N/C(=O)c1cnccc1C(F)(F)F)C1CC1 [I.19] | 0 | 100 | 100 | 100 | 40 | 60 | 100 | 100 | 
7 | FC(F)(F)c1ccncc1C1=NCCN1 [I.20] | 0 | 40 | 100 | 100 | 20 | 60 | 100 | 100 | 
8 | CSCC/C(N)=N\C(=O)c1cnccc1C(F)(F)F [I.21] | 0 | 0 | 0 | 100 | 20 | 60 | 100 | 100 | 
9 | NC(=S)c1cnccc1C(F)(F)F [I.22] | 100 | 100 | 100 | 100 | 40 | 60 | 60 | 100 | 
10 | CC(=O)CNC(=O)c1cnccc1C(F)(F)F [I.23] | 40 | 100 | 100 | 100 | 0 | 20 | 40 | 100 | 
11 | CS(=O)(=O)NC(=O)c1cnccc1C(F)(F)F [I.24] | 100 | 100 | 100 | 100 | 40 | 60 | 100 | 100 | 
12 | C[Si](C)(C)CNC(=O)c1cnccc1C(F)(F)F [I.25] | 100 | 100 | 100 | 100 | 80 | 80 | 100 | 100 | 
13 | CC(NC(=O)c1cnccc1C(F)(F)F)C(N)=S (stereo not shown) [I.26] | 0 | 100 | 100 | 100 | 0 | 0 | 100 | 100 | 
14 | CCNNC(=O)c1cnccc1C(F)(F)F [I.27] | 0 | 100 | 100 | 100 | 0 | 0 | 100 | 100 | 
15 | CN(OC(=O)Oc1ccccc1)C(=O)c1cnccc1C(F)(F)F [I.28] | 20 | 40 | 60 | 100 | 0 | 0 | 40 | 100 | 
16 | COCCOC(=O)ON(C(=O)c1cnccc1C(F)(F)F)C(C)C [I.29] | 0 | 0 | 0 | 100 | 20 | 60 | 100 | 100 | 
17 | COC(=O)N(C(=O)N1CO[C@@]2(C(=O)OC)Cc3cc(Cl)ccc3C2=N1)c1ccc(OC(F)(F)F)cc1 [Indoxacarb] |  |  |  |  |  |  |  |  | 24 hr mort (Anopheles stephensi [1]; 12.5 ppm alone): 0.0; 48 hr mort (Anopheles stephensi [1]; 12.5 ppm alone): 0.0; KD (Anopheles stephensi [1]; 12.5 ppm alone): 0.0; 24 hr mort (Anopheles stephensi [1]; 25 ppm alone): 0.0; 48 hr mort (Anopheles stephensi [1]; 25 ppm alone): 0.0; KD (Anopheles stephensi [1]; 25 ppm alone): 0.0; 24 hr mort (Anopheles stephensi [1]; 50 ppm alone): 0.0; 48 hr mort (Anopheles stephensi [1]; 50 ppm alone): 0.0; KD (Anopheles stephensi [1]; 50 ppm alone): 0.0; 24 hr mort (Anopheles stephensi [1]; 100 ppm alone): 0.0; 48 hr mort (Anopheles stephensi [1]; 100 ppm alone): 0.0; KD (Anopheles stephensi [1]; 100 ppm alone): 0.0; knockdown after 1 hour, Alone (Anopheles stephensi [1]; Table B7, 25 ppm): 0; knockdown after 1 hour, Alone (Anopheles stephensi [1]; Table B7, 50 ppm): 0; knockdown after 1 hour, Alone (Anopheles stephensi [1]; Table B7, 100 ppm): 0; knockdown after 1 hour, Alone (Anopheles stephensi [1]; Table B7, 200 ppm): 0; % 24 hour mortality (female mosquitoes; Table B14, 20 mg/m2): 7.6%; % Blood fed (female mosquitoes; Table B14, 20 mg/m2): 31.4%
